Assay results taken from patent publication US7122547B1, “Anthranilic acid amides and the use thereof as medicaments” (Schering AG, priority 1998, dated 2006).

Key:
VEGFR II (KDR) = VEGFR II (KDR) (Homo sapiens, UniProt P35968); assay: Inhibition of KDR kinase activity (33P-ATP, poly-(Glu4Tyr) phosphocellulose filter assay); assay type: biochemical; details: 10 minutes at room temperature, KH = keine Hemmung = No inhibition
Procedure: (§1) • Stock solutions • Stock solution A: 3 mmol of ATP in water, pH 7.0 (−70° C.) • Stock solution B: g-0.33P-ATP 1 mCi/100 μl • Stock solution C: poly-(Glu4Tyr) 10 mg/ml in water Solution for Dilutions • Substrate solvent: 10 mmol of DTT, 10 mmol of manganese chloride, 100 mmol of magnesium chloride • Enzyme solution: 120 mmol of tris/HCl, pH 7.5, 10 μm of sodium vanadium oxide Sample Application 1
(§2) Inhibition of the KDR- and FLT-1 kinase activity in the presence of the compounds according to the invention
(§3) It is thoroughly mixed and incubated for 10 minutes at room temperature. Then, 10 μl of stop solution (250 mmol of EDTA, pH 7.0) is added, mixed, and 10 μl of the solution is transferred to a P 81 phosphocellulose filter. Then, it is washed several times in 0.01 M phosphoric acid. The filter paper is dried, coated with Meltilex and measured in a microbeta counter.

VEGFR I (FLT) = VEGFR I (FLT) (Homo sapiens, UniProt P17948); assay: Inhibition of FLT-1 kinase activity (33P-ATP, poly-(Glu4Tyr) phosphocellulose filter assay); assay type: biochemical; details: 10 minutes at room temperature, KH = keine Hemmung = No inhibition
VEGFR I (FLT), sequence (P17948 27-1338, species assumed): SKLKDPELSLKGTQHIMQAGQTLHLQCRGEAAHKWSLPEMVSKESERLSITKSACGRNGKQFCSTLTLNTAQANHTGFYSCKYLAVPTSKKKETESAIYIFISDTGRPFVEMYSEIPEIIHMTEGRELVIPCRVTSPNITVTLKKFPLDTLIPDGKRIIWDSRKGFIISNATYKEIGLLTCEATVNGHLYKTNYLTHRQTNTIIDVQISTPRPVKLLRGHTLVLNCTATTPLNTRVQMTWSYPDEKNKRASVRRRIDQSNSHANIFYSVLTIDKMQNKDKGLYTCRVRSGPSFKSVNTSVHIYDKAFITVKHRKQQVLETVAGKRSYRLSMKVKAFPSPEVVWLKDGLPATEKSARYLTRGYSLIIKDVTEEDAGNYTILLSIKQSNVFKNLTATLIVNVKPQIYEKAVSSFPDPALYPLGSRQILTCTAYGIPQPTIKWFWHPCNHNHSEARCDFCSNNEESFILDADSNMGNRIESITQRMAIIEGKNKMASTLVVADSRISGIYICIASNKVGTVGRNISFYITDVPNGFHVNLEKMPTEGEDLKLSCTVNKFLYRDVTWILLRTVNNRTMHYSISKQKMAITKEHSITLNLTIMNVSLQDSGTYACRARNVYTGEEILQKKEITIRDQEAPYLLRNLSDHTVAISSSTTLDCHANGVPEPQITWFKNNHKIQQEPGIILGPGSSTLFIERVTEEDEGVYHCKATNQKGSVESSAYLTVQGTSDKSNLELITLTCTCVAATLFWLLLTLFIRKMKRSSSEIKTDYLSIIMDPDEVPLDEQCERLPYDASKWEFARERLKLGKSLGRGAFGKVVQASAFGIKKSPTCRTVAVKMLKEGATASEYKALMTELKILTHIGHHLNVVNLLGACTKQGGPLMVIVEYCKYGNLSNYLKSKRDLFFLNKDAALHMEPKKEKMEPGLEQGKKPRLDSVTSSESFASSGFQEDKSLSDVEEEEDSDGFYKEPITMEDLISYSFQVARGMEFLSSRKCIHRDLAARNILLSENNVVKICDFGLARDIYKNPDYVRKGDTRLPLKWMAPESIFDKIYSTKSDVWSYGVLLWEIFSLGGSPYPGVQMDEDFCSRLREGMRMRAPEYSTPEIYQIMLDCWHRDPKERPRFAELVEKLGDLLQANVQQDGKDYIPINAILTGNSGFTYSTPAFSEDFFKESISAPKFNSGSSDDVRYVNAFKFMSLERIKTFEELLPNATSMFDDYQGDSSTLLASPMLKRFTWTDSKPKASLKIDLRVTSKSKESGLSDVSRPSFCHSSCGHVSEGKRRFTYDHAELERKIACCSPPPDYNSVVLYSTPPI
Procedure: as §1, §2, §3

VEGFR II (KDR), sequence (P35968 20-1356, species assumed): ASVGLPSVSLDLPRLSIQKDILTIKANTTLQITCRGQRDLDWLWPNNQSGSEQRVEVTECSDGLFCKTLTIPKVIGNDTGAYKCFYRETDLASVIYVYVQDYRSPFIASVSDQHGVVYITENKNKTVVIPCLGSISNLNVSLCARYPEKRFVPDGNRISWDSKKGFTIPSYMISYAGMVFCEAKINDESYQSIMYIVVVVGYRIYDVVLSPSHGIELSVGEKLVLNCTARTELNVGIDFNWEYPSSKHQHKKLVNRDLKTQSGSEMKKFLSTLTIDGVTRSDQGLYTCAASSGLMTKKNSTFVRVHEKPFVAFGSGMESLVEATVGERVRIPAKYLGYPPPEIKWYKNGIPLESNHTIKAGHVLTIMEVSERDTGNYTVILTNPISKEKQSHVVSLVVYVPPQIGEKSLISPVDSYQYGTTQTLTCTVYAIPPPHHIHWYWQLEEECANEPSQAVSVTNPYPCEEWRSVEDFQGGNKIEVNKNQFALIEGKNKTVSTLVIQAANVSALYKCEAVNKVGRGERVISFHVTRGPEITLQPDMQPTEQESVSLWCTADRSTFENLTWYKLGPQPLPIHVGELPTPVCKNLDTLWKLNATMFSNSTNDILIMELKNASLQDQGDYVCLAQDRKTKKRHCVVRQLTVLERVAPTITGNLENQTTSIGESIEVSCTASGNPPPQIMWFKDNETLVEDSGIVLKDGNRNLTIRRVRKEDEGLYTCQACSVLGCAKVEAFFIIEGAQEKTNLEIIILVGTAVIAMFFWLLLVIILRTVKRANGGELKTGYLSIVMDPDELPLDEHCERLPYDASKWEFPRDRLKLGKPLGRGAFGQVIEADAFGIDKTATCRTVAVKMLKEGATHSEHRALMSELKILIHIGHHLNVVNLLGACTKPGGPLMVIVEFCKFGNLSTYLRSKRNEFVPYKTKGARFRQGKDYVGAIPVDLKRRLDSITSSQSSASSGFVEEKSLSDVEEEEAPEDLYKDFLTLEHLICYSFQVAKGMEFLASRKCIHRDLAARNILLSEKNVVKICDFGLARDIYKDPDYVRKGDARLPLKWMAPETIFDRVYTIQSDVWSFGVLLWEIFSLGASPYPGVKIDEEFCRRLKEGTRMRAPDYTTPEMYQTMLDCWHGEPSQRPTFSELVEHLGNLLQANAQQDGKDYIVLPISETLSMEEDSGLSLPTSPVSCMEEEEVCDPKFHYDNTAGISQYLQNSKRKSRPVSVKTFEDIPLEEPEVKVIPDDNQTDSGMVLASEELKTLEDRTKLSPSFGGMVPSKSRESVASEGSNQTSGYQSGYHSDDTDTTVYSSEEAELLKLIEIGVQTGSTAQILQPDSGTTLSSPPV

Structure (SMILES) | IC50 (VEGFR II (KDR)) [nM] | IC50 (VEGFR I (FLT)) [nM]
CC(C)(NC(=O)c1ccccc1NCc1ccncc1)c1ccccc1 [Example 2.19] | > 10000 | > 10000
O=C(Nc1nc2ccccc2[nH]1)c1ccccc1NCc1ccncc1 [Example 8.2] | 200 | 200
O=C(Nc1cc2ccccc2cn1)c1ccccc1NCc1ccncc1 [Example 2.54] | 5 | 20
O=C(Nc1ccc2[nH]ccc2c1)c1ccccc1NCc1ccncc1 [Example 2.56] | 20 | 40
O=C(NCCCc1ccc(Cl)cc1)c1ccccc1NCc1ccncc1 [Example 2.14] | 300 | 500
O=C(Nc1ccccn1)c1ccccc1NCc1ccncc1 [Example 2.37] |  | 200
CC(CNC(=O)c1ccccc1NCc1ccncc1)c1ccc(Cl)cc1 (stereo not drawn) [Example 2.16] | 200 | 100
O=C(Nc1cccc2cnccc12)c1ccccc1NCc1ccncc1 [Example 2.55] | 200 | 300
CC(NC(=O)c1ccccc1NCc1ccncc1)c1ccc(Cl)cc1 (stereo not drawn) [Example 2.15] |  | 1000
CC(Cc1ccc(Cl)cc1)NC(=O)c1ccccc1NCc1ccncc1 (stereo not drawn) [Example 2.17] | 500 | 400
O=C(Nc1ccc2nc[nH]c2c1)c1ccccc1NCc1ccncc1 [Example 8.14] | 200 | 500
O=C(NCCc1c[nH]c2cc(F)ccc12)c1ccccc1NCc1ccncc1 [Example 2.8] | 100 | 500
O=C(Nc1cc2ccccc2c(Nc2cc3ccccc3c(Br)n2)n1)c1ccccc1NCc1ccncc1 [Example 2.33] | 2000 | 1000
CC(NC(=O)c1ccccc1NCc1ccncc1)c1cccc2ccccc12 (stereo not drawn) [Example 2.12] | 3000 | 700
O=C(Nc1cc(-c2ccccc2)[nH]n1)c1ccccc1NCc1ccncc1 [Example 2.43] | 50 | 20
O=C(Nc1ccc2ncccc2c1)c1ccccc1NCc1ccncc1 [Example 2.52] |  | 50
O=C(Nc1nc2ccc(F)cc2s1)c1ccccc1NCc1ccncc1 [Example 8.16] | 300 | 200
O=C(NCc1ccc(Cl)cc1)c1ccccc1NCc1ccncc1 [Example 2.1] | 300 | 10
Cn1c(NC(=O)c2ccccc2NCc2ccncc2)nc2ccccc21 [Example 8.12] | 100 | 200
O=C(Nc1cc2ccccc2cn1)c1cc(F)ccc1NCc1ccncc1 [Example 2.63] | 0.3 | 
O=C(NC1CCc2cc(Cl)ccc21)c1ccccc1NCc1ccncc1 (stereo not drawn) [Example 2.20] |  | 4000

Structure (SMILES) | IC50 (VEGFR II (KDR)) [nM] | IC50 (VEGFR I (FLT)) [nM]
O=C(NCc1ccc(C(F)(F)F)cc1)c1ccccc1NCc1ccncc1 [Example 2.42] | 100 | 500
O=C(NCCc1ccc(Cl)cc1)c1ccccc1NCc1ccc(O)cc1 [Example 4.0, N-[2-(4-chlorophenyl)ethyl]-N-2-(4-hydroxybenzyl)anthranilamide] | 200 | 500
O=C(NCc1cccc2ccccc12)c1ccccc1NCc1ccncc1 [Example 2.11] | 200 | 20
O=C(Nc1ccncc1)c1ccccc1NCc1ccncc1 [Example 8.11] |  | 200
O=C(Nc1nnc(C(F)(F)F)s1)c1ccccc1NCc1ccncc1 [Example 2.41] | 300 | 1000
O=C(Nc1nc2c(Cl)cccc2s1)c1ccccc1NCc1ccncc1 [Example 8.17] | 50 | 
O=C(NC1CCC(c2ccccc2)CC1)c1ccccc1NCc1ccncc1 (stereo not drawn) [Example 2.44] | 200 | 300
COc1ccc(CCNC(=O)c2ccccc2NCc2ccncc2)cc1OC [Example 2.21] | 300 | 2000
O=C(Nc1ccc2nsnc2c1)c1ccccc1NCc1ccncc1 [Example 2.23] | 670 | 20
O=C(Nc1nc2ccc(OC(F)(F)F)cc2s1)c1ccccc1NCc1ccncc1 [Example 8.9] | 500 | 500
O=C(Nc1cccc2cccnc12)c1ccccc1NCc1ccncc1 [Example 2.34] | 100 | 2000
O=C(NCc1ccc2ccccc2n1)c1ccccc1NCc1ccncc1 [Example 2.48] | 500 | 100
CN(NC(=O)c1ccccc1NCc1ccncc1)c1ccccc1 [Example 2.5] |  | 1000
O=C(NCc1nccc2ccccc12)c1ccccc1NCc1ccncc1 [Example 2.47] |  | 20
O=C(NCCCc1ccccc1)c1ccccc1NCc1ccncc1 [Example 2.0, N-(3-phenylprop-1-yl)-N2-(4-pyridylmethyl)-anthranilic acid amide] | 50 | 50
O=C(Nc1nccc2ccccc12)c1ccccc1NCc1ccncc1 [Example 2.31] | 270 | 100
O=C(Nc1cccc2ncccc12)c1ccccc1NCc1ccncc1 [Example 2.26] | 200 | 200
O=C(NCc1ccncc1)c1ccccc1NCc1ccncc1 [Example 2.10] |  | 3000
O=C(Nc1nc2ccc(Cl)cc2s1)c1ccccc1NCc1ccncc1 [Example 8.13] | 500 | 500
O=C(Nc1ccc2ccccc2n1)c1ccccc1NCc1ccncc1 [Example 2.53] | 20 | 20
O=C(NCc1cccs1)c1ccccc1NCc1ccncc1 [Example 2.6] | 2000 | 200

Structure (SMILES) | IC50 (VEGFR II (KDR)) [nM] | IC50 (VEGFR I (FLT)) [nM]
O=C(N[C@@H]1CCCc2ccccc21)c1ccccc1NCc1ccncc1 [Example 2.24] | > 1000 | 500
O=C(Nc1ccc(Cl)cn1)c1ccccc1NCc1ccncc1 [Example 2.39] | 30 | 50
O=C(N[C@H]1CCCc2ccccc21)c1ccccc1NCc1ccncc1 [Example 2.45] |  | 100
O=C(Nc1ccc2[nH]ncc2c1)c1ccccc1NCc1ccncc1 [Example 8.0, N-(indazol-5-yl) N2-(4-pyridylmethyl)-anthranilic acid amide] | 40 | 40
O=C(Nc1cccnc1)c1ccccc1NCc1ccncc1 [Example 2.40] |  | 500
O=C(Nc1ccc2cn[nH]c2c1)c1ccccc1NCc1ccncc1 [Example 8.10] | 20 | 20
COc1cc2c(cc1OC)CC(NC(=O)c1ccccc1NCc1ccncc1)CC2 (stereo not drawn) [Example 2.9] |  | 5000
O=C(Nc1ccc2ncsc2c1)c1ccccc1NCc1ccncc1 [Example 8.8] | 20 | 50
O=C(Nc1ncc(Cl)cn1)c1ccccc1NCc1ccncc1 [Example 2.32] | 20 | 20
O=C(NCCc1ccc(Cl)cc1)c1ccccc1NCc1ccncc1 [Example 2.3] | 20 | 20
COc1ccc(CCNC(=O)c2ccccc2NCc2ccncc2)cc1 [Example 2.35] | 20 | 98
O=C(NC1Cc2ccccc2C1)c1ccccc1NCc1ccncc1 [Example 2.2] | 500 | 100
O=C(NNc1ccc(Cl)cc1)c1ccccc1NCc1ccncc1 [Example 2.4] | 100 | 20
O=C(NCc1cccnc1)c1ccccc1NCc1ccncc1 [Example 2.38] | 200 | 7000
O=C(Nc1ccc2[nH]nnc2c1)c1ccccc1NCc1ccncc1 [Example 8.15] | 200 | 200
CC(CNC(=O)c1ccccc1NCc1ccncc1)c1ccccc1 (stereo not drawn) [Example 2.18] | 500 | 300
COc1ccc(CNc2ccccc2C(=O)NCc2ccc(Cl)cc2)cc1 [Example 3.0, N-(4-chlorobenzyl)-N-2-(4-methoxybenzyl)anthranilamide] | 3000 | 
O=C(Nc1ccc2c(c1)NCCC2)c1ccccc1NCc1ccncc1 [Example 2.49] | 50 | 80
O=C(NC1CCCc2ccccc21)c1ccccc1NCc1ccncc1 (stereo not drawn) [Example 2.13] | 3000 | 700
